Paper PMC6611044, “Pharmacokinetic analysis of new synthetic antimalarial N-251” (Tropical Medicine and Health, 2019)
Values after ≈ are worked out from the molar mass of the structure shown. Values joined by “and” are separate entries in the source; they are usually repeats but may differ in a detail not shown here. Equal entries are not always repeated. “Also recorded” adds a separate entry of the source. Where two headings read alike, the source gives them in different places.

Key:
rodent malaria parasites = system: rodent malaria parasites; parameters: method as in PMID 21501696; conditions: 68 mg/kg three times a day for 3 days, cited from earlier work
[1] = Multiple p.o. dosing plasma concentration-time profile and simulation; type: in vivo, mice; conditions: 68 mg/kg three times a day for 3 days
[2] = cited from earlier work
[3] = PK analysis after p.o. administration of N-251 in fasted mice; type: in vivo; conditions: for AUC: 0 to infinity
Description: To analyze the absorption kinetics of N-251, it was orally administered to fasted mice with dose of 210, 100, 68, 50, and 30 mg/kg. Blood sample was collected at 15 and 30 min as well as 1, 1.5, 2, 3, 4, and 6 h post-dose. Data were expressed as the mean (n = 6) ± SD. AUC and MRT after p.o. administration in fasting mice were calculated based on the trapezoidal rule. F was calculated with an AUC of 10 mg/kg of i.v. dose. The highest observed concentration was used as Cmax, and the time for Cmax was defined as Tmax.

[4] = Multiple p.o. dosing plasma concentration-time profile and simulation; type: in vivo, mice
Description: N-251 was administered p.o. at a dose of 68 mg/kg every 8 h for 2 days in normal-fed mice. Blood sample was collected at 15, 30, and 45 min as well as 1, 1.5, 2, 3, 4, 6, 8, 10, 16, 18, 24, 26, 32, 34, 40, 42, 44, 46, and 48 h after administration. Data were expressed as mean (n = 6) with the bar indicating the SD value. Simulation of plasma concentration-time profile after multiple dosing was performed by utilizing the parameters obtained via fitting analysis for the plasma concentration-time curve after a single p.o. dose of N-251 based on the two-compartment model with the first-order absorption process. The equation and parameters used for the simulation were as follows: Cp=X⋅EXP−ka⋅t−tlag+Y⋅EXP−α⋅t−tlag+Z⋅EXP−β⋅t−tlag,
where ka and tlag are absorption rate constant and lag time, respectively, and X, Y, Z, α, and β are the hybrid parameters. Their values used for simulation were as follows: X = 8422 ng/mL/kg, ka = 0.845 h^−1, Y = − 8419 ng/mL/kg, α = 1.09 h^−[…], Z = 5.29 ng/mL/kg, β = 1.06 h^−1, and lag time = 0.330.

[5] = Effects of food and parasite infection on absorption of N-251 after p.o. administration; type: in vivo, mice; conditions: p.o. 68 mg/kg; for F: vs AUC of 10 mg/kg i.v.
Description: Normal-fasted and normal-fed mice were used for the analysis. Parasite-infected mice were prepared before the analysis, and a 0.61% infection rate in P. berghei-infected mice under fasting condition was used. The single p.o. dose of N-251 was 68 mg/kg. Blood sample was collected 15, 30, and 45 min as well as 1, 1.5, 2, 3, 4, and 6 h post-dose. Data were expressed as mean with the bar indicating the SD value.

P. berghei = system: P. berghei; parameters: method as in PMID 11428929; conditions: 4-day suppressive test, cited from earlier work
[6] = male, ICR, mouse, plasma, po, p.o. 30 mg/kg
[7] = male, ICR, mouse, plasma, po, p.o. 50 mg/kg
[8] = male, ICR, mouse, plasma, po, p.o. 68 mg/kg
[9] = male, ICR, mouse, plasma, po, p.o. 100 mg/kg
[10] = male, ICR, mouse, plasma, po, p.o. 210 mg/kg
[11] = fit of single p.o. dose, two-compartment model with first-order absorption
[12] = ICR, mouse, plasma, po, 68 mg/kg, normal-fed mice

## OCCCCCCC1COOC2(CCCCCCCCCCC2)OOC1 [N-251, 6-(1,2,6,7-tetraoxaspiro [7.11]nonadec-4-yl)hexan-1-ol]
Rodent malaria parasites; infected mice
  period without parasites after the last administration: 2 months
  time after treatment at which parasites were not observed in the bloodstream: 36 h
  time after which malaria parasites decreased: 16 h
Rodent malaria parasites
  cure of infected mice: completely cured without recrudescence
[1]
  plasma concentration maintained for 72 h: more than 10 ng/mL
[2]; Cremophor EL
  solubility in Cremophor EL: 65 mg/mL (≈ 174 mM)
[2]; olive oil
  solubility in olive oil: 92 mg/mL (≈ 247 mM)
[3]; ICR, mouse, plasma, po, every group of dose (30-210 mg/kg)
  Tmax: 2 h
[3]; ICR, mouse, plasma, po, p.o. administration, over doses 30-210 mg/kg, read-out: bioavailability (F)
  bioavailability: ~23%
[3]; [6]
  Cmax: 634 ± 129 ng/mL
  Tmax: 2 h
  AUC: 1570 ng·h/mL
[3]; [7]
  Cmax: 1360 ± 799 ng/mL
  Tmax: 2 h
  AUC: 2570 ng·h/mL
[3]; [8]
  Cmax: 1680 ± 811 ng/mL
  Tmax: 2 h
  AUC: 3770 ng·h/mL
[3]; [9]
  Cmax: 2460 ± 802 ng/mL
  Tmax: 2 h
  AUC: 5890 ng·h/mL
[3]; [10]
  Cmax: 4890 ± 1190 ng/mL
  Tmax: 2 h
  AUC: 15200 ng·h/mL
[3]; p.o. 30 mg/kg
  MRTpo: 2.45 h
[3]; p.o. 30 mg/kg, vs AUC of 10 mg/kg i.v.
  F: 0.2156
[3]; p.o. 50 mg/kg
  MRTpo: 2.49 h
[3]; p.o. 50 mg/kg, vs AUC of 10 mg/kg i.v.
  F: 0.2110
[3]; p.o. 68 mg/kg
  MRTpo: 2.46 h
[3]; p.o. 68 mg/kg, vs AUC of 10 mg/kg i.v.
  F: 0.2277
[3]; p.o. 100 mg/kg
  MRTpo: 2.46 h
[3]; p.o. 100 mg/kg, vs AUC of 10 mg/kg i.v.
  F: 0.2419
[3]; p.o. 210 mg/kg
  MRTpo: 2.74 h
[3]; p.o. 210 mg/kg, vs AUC of 10 mg/kg i.v.
  F: 0.2982
[3]; p.o. between 30 and 100 mg/kg
  F: approximately 0.22
[4]; 68 mg/kg p.o. every 8 h for 2 days, normal-fed mice, except 8 h after the first administration
  minimal plasma concentration (Cmin): greater than 10 ng/mL
[4]; 68 mg/kg p.o. three times per day for 2 days, normal-fed mice
  accumulation on multiple oral dosing: did not accumulate; also recorded: does not accumulate
[4]; [11]
  X (hybrid parameter used for simulation): 8422 ng/mL/kg
  Z (hybrid parameter used for simulation): 5.29 ng/mL/kg
  ka (absorption rate constant): 0.845 h⁻¹
  lag time: 0.330
  α (hybrid parameter used for simulation): 1.09 ng/h/mL/kg
  β (hybrid parameter used for simulation): 1.06 h⁻¹
[5]; ICR, mouse, plasma, po, 68 mg/kg, P. berghei-infected (0.61%) fasted mice
  AUC: 3270 ng·h/mL
[5]; ICR, mouse, plasma, po, 68 mg/kg, P. berghei-infected (0.61%) fasted mice, read-out: Cmax
  Cmax: 1770 ± 1650 ng/mL
[5]; ICR, mouse, plasma, po, 68 mg/kg, normal-fasted mice (control), read-out: Cmax
  Cmax: 1680 ng/mL
[5]; [12]
  AUC: 2280 ng·h/mL
  Tmax: 1.5 h
[5]; ICR, mouse, plasma, po, 68 mg/kg, normal-fed mice, read-out: Cmax
  Cmax: 953 ng/mL
[5]
  AUC in fed mice relative to fasted mice: about 60%
  Cmax in fed mice relative to normal-fasted mice: 57%
[5]; P. berghei-infected (0.61%) fasted mice
  F: 0.1978
[5]; normal-fed mice
  MRTpo: 3.01 h
  F: 0.1379
[5]; normal-fed mice, 68 mg/kg
  Cmax: 950 ng/mL and 952.50 ± 332.49 ng/mL
P. berghei; i.v.
  ED50: 22 mg/kg
P. berghei; p.o.
  ED50: 15 mg/kg
